Assay results: patent US8263587B2, “Benzoxazepine compounds, their preparation and use” (Piramal Healthcare Limited, priority 2006, dated 2012)

Assays:
isolated rat hepatocytes [1] = assay: LDH leakage from isolated rat hepatocytes; assay type: cell-based
Protocol: (§1) The assay was done in three groups: basal, control and test. The test compounds were added to the vials at different concentrations. The isolated hepatocytes were added to the vials and they were incubated at 37° C. for 15 min. After 15 min, 5 mM fructose (precursor for gluconeogenesis) was added to the control and test group. Vials were again incubated at 37° C. for one hour with constant shaking (80 cycles/min.). Incubation was terminated by centrifuging the reaction mixture at 3000 rpm for 5 min. The supernatant was used for determination of both glucose and lactate dehydrogenase (LDH) (Table 1).
The LDH activity is measured, by the method described in Meth. Enz. Ana. 3, 118-125, 1984, the disclosure of which is incorporated by reference for the teaching of the method, as the amount of pyruvate consumed by continuously monitoring the decrease in absorbance due to oxidation of NADH (Nicotinamide Adenine Dinucleotide-reduced form) at 339 nm.

3T3-L1 pre-adipocytes = assay: Potentiation of insulin-stimulated lipogenesis in 3T3-L1 adipocytes; assay type: cell-based; conditions: over insulin control = 1
Protocol: 3T3-L1 pre-adipocytes were grown to confluence in 25 ml culture flasks in DMEM (Dulbecco's Modified Eagle's Medium, with 25 mM glucose) containing 10% fetal calf serum (FCS) and antibiotics in a humidified atmosphere of 5% CO2 and 95% air at 37° C. The medium was changed every 2-3 days. The cells were trypsinised at confluency using 0.25% trypsin and transferred to another flask.
For the assay, cells were grown in 24 well plates. Induction of differentiation was done when the cells had grown to confluency with DMEM containing 5% FCS and supplemented with 0.5 mM IBMX (3-Isobutyl-1-methylxanthine), 0.5 μM DEX (dexamethasone) and 1 μg/ml insulin. […] The medium was changed three times, each at an interval of 2 days. On the day of termination of medium changes, lipogenesis assay was performed.
3T3-L1 cells were grown to confluency in 24 well plates. […] On the day of termination of the assay the cells were incubated in […] KRHB (Krebs-Ringer Hepes buffer) for 2 hr at 37° C. in a CO2 incubator. This was replaced with fresh KRHB with 0.1 mM glucose containing 100 nM insulin, test compound or insulin plus test compound. Lipogenesis was initiated by the addition of 20 μl of 50 μCi/ml [^3H]-D-Glucose to each well and incubation for 90 min at 37° C. in a CO2 incubator. The reaction was terminated by aspirating the medium from each well and washing the cells rapidly 3 times with ice-cold PBS (phosphate buffered saline). 500 μl of 0.2 N NaOH was added to lyse the cells. 450 μl was aliquoted into scintillation vials and scintillation cocktail added. The vials were read in Liquid Scintillation Counter. Results are expressed as fold activation of the standard or test compound over the control (Table 2).

isolated rat hepatocytes [2] = assay: Inhibition of gluconeogenesis in isolated rat hepatocytes; assay type: cell-based; conditions: 5 mM fructose
Protocol: Assay protocol for determination of inhibition of gluconeogenesis by compounds in isolated rat hepatocytes:
Hepatocytes were isolated by collagenase digestion of perfused livers from male Wistar rats fasted overnight according to the method described in J. Cell. Science., 56, 233-244, 1982, the disclosure of which is incorporated by reference for the teaching of the method.
as §1
An active compound would decrease the amount of glucose formed, which is read at 520 nm by glucose oxidase-peroxidase method.

hPPARα = biological target: T1, hPPARα (Homo sapiens, UniProt Q07869); assay: hPPARα transactivation in cell-based assay (CV-1 cells, luciferase)
T1 construct: expressed in transfected cells; host or cells: CV-1 cells
T1 sequence (Q07869 1-468): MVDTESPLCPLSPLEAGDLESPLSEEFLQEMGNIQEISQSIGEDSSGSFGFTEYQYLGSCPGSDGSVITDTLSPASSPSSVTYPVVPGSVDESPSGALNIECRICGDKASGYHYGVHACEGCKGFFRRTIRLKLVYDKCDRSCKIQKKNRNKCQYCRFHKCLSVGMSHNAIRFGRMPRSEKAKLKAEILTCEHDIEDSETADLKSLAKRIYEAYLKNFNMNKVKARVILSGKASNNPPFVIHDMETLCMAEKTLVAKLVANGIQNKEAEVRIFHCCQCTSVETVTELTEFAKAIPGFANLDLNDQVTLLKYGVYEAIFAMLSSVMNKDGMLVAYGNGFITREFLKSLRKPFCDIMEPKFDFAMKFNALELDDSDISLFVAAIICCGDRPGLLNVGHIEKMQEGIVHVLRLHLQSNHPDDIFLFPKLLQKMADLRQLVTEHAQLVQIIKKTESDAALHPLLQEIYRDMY
Protocol: (§2) Cell based transcription assay was employed to identify hPPAR γ/α agonists. CV-1 cells were maintained in MEM (minimum essential medium) containing 10% FBS (fetal bovine serum). Cells were seeded at a density of 80,000 cells/well in a 24-well plate one day prior to transfection. CV-1 cells were transiently transfected with hPPAR γ/α using Lipofectamine 2000. […] Receptor activation by ligands leads to activation of luciferase expression, which was measured after 15-16 h incubation. The cells were washed with PBS, lysed, and luciferase activity measured in a microplate luminometer. […] Both compounds were synthesized in-house. Maximum activation with the reference agonists was defined as 100%. Receptor activation by test compounds is presented as percentage of maximum activation caused by the respective reference agonists in Table 4(a), Table 4(b) and Table 4(c).

hPPARγ = biological target: T2, hPPARγ (Homo sapiens, UniProt P37231); assay: hPPARγ transactivation in cell-based assay (CV-1 cells, luciferase); set-up: Emax: dose or concentration left out as unconfirmed; conditions: for PPARγ (Fold activation at 1 μM): CV-1 cells transfected with hPPARγ
T2 construct: expressed in transfected cells; host or cells: CV-1 cells
T2 sequence (P37231 1-505): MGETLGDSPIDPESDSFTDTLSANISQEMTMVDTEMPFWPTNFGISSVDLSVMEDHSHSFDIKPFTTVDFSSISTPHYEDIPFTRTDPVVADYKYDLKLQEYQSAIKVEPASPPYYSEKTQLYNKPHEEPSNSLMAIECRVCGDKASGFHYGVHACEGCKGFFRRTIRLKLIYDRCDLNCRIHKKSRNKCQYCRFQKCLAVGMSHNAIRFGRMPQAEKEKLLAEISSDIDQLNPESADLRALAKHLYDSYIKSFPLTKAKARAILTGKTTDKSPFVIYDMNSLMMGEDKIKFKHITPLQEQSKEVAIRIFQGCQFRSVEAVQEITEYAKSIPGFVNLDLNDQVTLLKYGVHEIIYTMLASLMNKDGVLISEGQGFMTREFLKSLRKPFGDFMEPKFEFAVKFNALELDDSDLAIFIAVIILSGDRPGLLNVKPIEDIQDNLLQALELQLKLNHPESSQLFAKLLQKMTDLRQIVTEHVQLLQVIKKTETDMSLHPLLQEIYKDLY
Protocol: as §2

[3] = tested on: STZ induced diabetic rats; assay: Streptozotocin-induced diabetes in rats, blood glucose; assay type: in vivo, male Wistar rats; conditions: for Percent reduction in blood glucose: STZ diabetic rats
Protocol: Diabetes was induced in male Wistar rats by intraperitoneal (i.p.) injection of streptozotocin (STZ) (60 mg/kg) dissolved in 0.05 M citrate buffer, pH 4.6. Plasma glucose levels were estimated 48 hours after STZ administration. […] The rats were divided into […] (n=8 in each group): the first (control) group consisted of untreated animals, the second group had diabetic animals and the third and fourth groups consisted of diabetic animals treated with the test compounds (50 and 100 mg/kg respectively). Test compounds were administered p.o. for 8 days to STZ induced diabetic rats (180-200 g). Blood glucose was measured on day 0, 3 and 8 (Table 3).

[4] = one entry 'No leakage' for all concentrations tested of the compound (up to 100 μM)
[5] = with insulin, concentration not given
[6] = 10 μM, isolated rat hepatocytes
[7] = 25 μM, isolated rat hepatocytes
[8] = 50 μM, isolated rat hepatocytes
[9] = 100 μM, isolated rat hepatocytes
[10] = Rattus norvegicus, Hepatocyte, 10 μM, read-out: Gluconeogenesis (glucose production) % inhibition
[11] = Rattus norvegicus, Hepatocyte, read-out: Gluconeogenesis (glucose production) % inhibition
[12] = Rattus norvegicus, Hepatocyte, 50 μM, read-out: Gluconeogenesis (glucose production) % inhibition
[13] = Rattus norvegicus, Hepatocyte, 100 μM, read-out: Gluconeogenesis (glucose production) % inhibition
[14] = CV-1, read-out: PPARγ activation as percentage of maximum activation by rosiglitazone

O=C(O)/C=C\C(=O)O.O=C1NC(=O)C(=Cc2ccc3c(c2)CN(c2ccccn2)CCO3)S1 [Compound of Example 8, 5-(4-Pyridin-2-yl-2,3,4,5-tetrahydro-benzo[f][1,4]oxazepin-7-ylmethylene)-thiazolidine-2,4-dione maleate]
LDH % leakage (isolated rat hepatocytes [1]; [4]): No | Fold stimulation of insulin-stimulated lipogenesis (3T3-L1 pre-adipocytes; [5]): 1.8 fold | Gluconeogenesis (glucose production) % inhibition (isolated rat hepatocytes [2]; 10 μM): 9% | Gluconeogenesis (glucose production) % inhibition (isolated rat hepatocytes [2]; 50 μM): 13% | Gluconeogenesis (glucose production) % inhibition (isolated rat hepatocytes [2]; 100 μM): 45% | melting point: 224 to 226 °C

CN(CCOc1ccc(CC2SC(=O)NC2=O)cc1)c1ccccn1 (centres unmarked) [Rosiglitazone, reference compound]
LDH % leakage (isolated rat hepatocytes [1]; 5 μM, isolated rat hepatocytes): 9% | LDH % leakage (isolated rat hepatocytes [1]; [6]): 9% | LDH % leakage (isolated rat hepatocytes [1]; [7]): 10% | LDH % leakage (isolated rat hepatocytes [1]; [8]): 11% | LDH % leakage (isolated rat hepatocytes [1]; [9]): 15% | inhibition at 5 µM (isolated rat hepatocytes [2]; Rattus norvegicus, Hepatocyte, 5 μM, read-out: Gluconeogenesis (glucose production) % inhibition): 11% | inhibition at 10 µM (isolated rat hepatocytes [2]; [10]): 28% | inhibition at 25 µM (isolated rat hepatocytes [2]; [11]): 43% | inhibition at 50 µM (isolated rat hepatocytes [2]; [12]): 57% | inhibition at 100 µM (isolated rat hepatocytes [2]; [13]): 68%

O=C1NC(=O)C(=Cc2ccc3c(c2)CN(c2ccccn2)CCO3)S1 [Compound of Example 3, 5-(4-Pyridin-2-yl-2,3,4,5-tetrahydro-benzo[f][1,4]oxazepin-7-ylmethylene)-thiazolidine-2,4-dione]
LDH % leakage (isolated rat hepatocytes [1]; [6]): 5% | LDH % leakage (isolated rat hepatocytes [1]; [7]): 5% | LDH % leakage (isolated rat hepatocytes [1]; [8]): 6% | LDH % leakage (isolated rat hepatocytes [1]; 75 μM, isolated rat hepatocytes): 7% | LDH % leakage (isolated rat hepatocytes [1]; [9]): 7% | Fold stimulation of insulin-stimulated lipogenesis (3T3-L1 pre-adipocytes; 1 μM with insulin): 1.2 fold | Fold stimulation of insulin-stimulated lipogenesis (3T3-L1 pre-adipocytes; 10 μM with insulin): 1.4 fold | Fold stimulation of insulin-stimulated lipogenesis (3T3-L1 pre-adipocytes; 25 μM with insulin): 1.7 fold | Gluconeogenesis (glucose production) % inhibition (isolated rat hepatocytes [2]; 50 μM): 42% | Gluconeogenesis (glucose production) % inhibition (isolated rat hepatocytes [2]; 100 μM): 74% | inhibition at 10 µM (isolated rat hepatocytes [2]; [10]): 10% | inhibition at 25 µM (isolated rat hepatocytes [2]; [11]): 36% | inhibition at 75 µM (isolated rat hepatocytes [2]; Rattus norvegicus, Hepatocyte, 75 μM, read-out: Gluconeogenesis (glucose production) % inhibition): 51%

O=C1NC(=O)C(Cc2ccc3c(c2)CN(c2nc4ccccc4o2)CCO3)S1 (centres unmarked) [Compound of Example 7, 5-(4-Benzooxazol-2-yl-2,3,4,5-tetrahydro-benzo[f][1,4]oxazepin-7-yl-methyl)-thiazolidine-2,4-dione]
PPARα (Fold activation at 20 μM) (hPPARα; 20 μM, CV-1 cells transfected with hPPARα): 1.5 fold | Emax at 20 µM (hPPARα; CV-1, read-out: PPARα activation as percentage of maximum activation by Wy-14643): 47% | LDH % leakage (isolated rat hepatocytes [1]; [4]): No | PPARγ (Fold activation at 1 μM) (hPPARγ): 0.7 fold | Emax at 1 µM (hPPARγ; [14]): 9% | inhibition at 3 µM (isolated rat hepatocytes [2]; Rattus norvegicus, Hepatocyte, 3 μM, read-out: Gluconeogenesis (glucose production) % inhibition): 12% | inhibition at 30 µM (isolated rat hepatocytes [2]; Rattus norvegicus, Hepatocyte, 30 μM, read-out: Gluconeogenesis (glucose production) % inhibition): 19% | inhibition at 100 µM (isolated rat hepatocytes [2]; [13]): 50%

O=C(O)/C=C\C(=O)O.O=C1NC(=O)C(Cc2ccc3c(c2)CN(c2ccccn2)CCO3)S1 (centres unmarked) [Compound of Example 5, 5-(4-Pyridine-2-yl-2,3,4,5-tetrahydro-benzo[f][1,4]oxazepin-7-ylmethyl)-thiazolidine-2,4-dione maleate]
PPARγ (Fold activation at 1 μM) (hPPARγ): 1.8 fold | Emax (hPPARγ; [14]): 12% | Percent reduction in blood glucose ([3]; 50 mpk p.o. for 8 days): 28% | Blood glucose ([3]; 50 mpk p.o., Day 0, STZ diabetic rats): 16.8 ± 0.9 μmols/ml | Blood glucose ([3]; 50 mpk p.o., Day 3, STZ diabetic rats): 15.9 ± 3.0 μmols/ml | Blood glucose ([3]; 50 mpk p.o., Day 8, STZ diabetic rats): 14.1 ± 1.99 μmols/ml | Percent reduction in blood glucose ([3]; 100 mpk p.o. for 8 days): 31% | Blood glucose ([3]; 100 mpk p.o., Day 0, STZ diabetic rats): 17.0 ± 2.0 μmols/ml | Blood glucose ([3]; 100 mpk p.o., Day 3, STZ diabetic rats): 16.0 ± 1.09 μmols/ml | Blood glucose ([3]; 100 mpk p.o., Day 8, STZ diabetic rats): 13.0 ± 0.9 μmols/ml

COC(=O)C(Cc1ccc2c(c1)CN(c1ccccn1)CCO2)C(=O)OC [Compound of Example 2]
Fold stimulation of insulin-stimulated lipogenesis (3T3-L1 pre-adipocytes; [5]): 2 fold

O=C1NC(=O)C(Cc2ccc3c(c2)CN(c2ccccn2)CCO3)S1 (centres unmarked) [Compound of Example 4, 5-(4-Pyridin-2-yl-2,3,4,5-tetrahydro-benzo[f][1,4]oxazepin-7-yl-methyl)-thiazolidine-2,4-dione]
LDH % leakage (isolated rat hepatocytes [1]; [4]): No | Fold stimulation of insulin-stimulated lipogenesis (3T3-L1 pre-adipocytes; 10 μM with insulin): 2 fold | Fold stimulation of insulin-stimulated lipogenesis (3T3-L1 pre-adipocytes; 100 μM with insulin): 2.3 fold | inhibition at 10 µM (isolated rat hepatocytes [2]; [10]): 27% | inhibition at 50 µM (isolated rat hepatocytes [2]; [12]): 35% | inhibition at 100 µM (isolated rat hepatocytes [2]; [13]): 57% | melting point: 180 to 181 °C

O=C1NC(=O)C(=Cc2ccc3c(c2)CN(c2nc4ccccc4o2)CCO3)S1 [Compound of Example 6, 5-(4-Benzooxazol-2-yl-2,3,4,5-tetrahydro-benzo[f][1,4]oxazepin-7-ylmethylene)-thiazolidine-2,4-dione]
Fold stimulation of insulin-stimulated lipogenesis (3T3-L1 pre-adipocytes; 10 μM with insulin): 1.4 fold
